Source: US9439968B2, “Amine-containing lipidoids and uses thereof” (Massachusetts Institute of Technology, priority 2012, dated 2016)
One block for each molecule: values may come before it.

What was measured:
Factor VII = assay: In vivo Factor VII gene silencing in mouse hepatocytes; set-up: species or system mice; settings: for Relative FVII Activity: tail vein, serum two days post-injection
Procedure: Female C57BL/6 mice (Charles River Laboratories, Wilmington, Mass.) received injections through the lateral tail vein injections of PBS (negative control), or lipidoid nanoparticles containing either non-targeting siRNA (negative control) or anti-Factor VII siRNA diluted in PBS at a volume of 0.01 ml/g.
Two days post-injection, a 100 ul blood sample was obtained from mice and centrifuged at 13,000 rpm in serum separator tubes (Becton Dickinson). Serum levels of Factor VII were analyzed using a Biophen FVII assay kit as described previously (Aniara Corporation, Mason, Ohio) Semple, S. C. et al. Nature Biotechnology 1-7 (2010).
Selected lipidoids (those data points shown in red in FIG. 3a) were analyzed for siRNA delivery to hepatocytes in a murine model of the blood coagulation Factor VII. […] In these experiments, LNPs containing anti-Factor VII siRNA were injected intravenously into mice, and Factor VII activity levels were quantified two days post-injection.

[1] = tested on: HeLa cells stably modified to express both firefly and Renilla luciferase; assay: In vitro transfection of HeLa cells with lipid nanoparticles (firefly luciferase silencing); assay type: cell-based; settings: 40 nM anti-firefly luciferase siRNA formulated with lipidoid; firefly normalized to Renilla; crude lipidoids
Procedure: HeLa cells stably modified to express both firefly and Renilla luciferase were maintained at 37° C. in high glucose Dulbecco's Modified Eagles Medium without phenol red (Invitrogen, Carlsbad, Calif.) supplemented with 10% fetal bovine serum (FBS, Invitrogen). 12-16 hours prior to transfection, cells were seeded in white 96-well plates at a density of 15,000 cells per well. Cells were transfected with a 40 nM concentration of anti-firefly luciferase siRNA (Dharmacon, Lafayette, Colo.) that had been formulated with lipidoids into nanoparticles. Firefly luciferase silencing was assessed with a Dual-Glo® Luciferase Assay kit (Promega, Madison, Wis.). Renilla luciferase activity served as a control.
To determine the transfection ability of lipidoids, they were first formulated into lipid nanoparticles (LNPs) containing siRNA, cholesterol and the helper lipids, DSPC and PEG(MW2000)-DMG. The delivery potential of lipidoids was assessed by applying LNPs to HeLa cells that had been genetically modified to stably express two reporter luciferase proteins: firefly and Renilla. Firefly luciferase served as the target gene while Renilla luciferase served as a built-in control for toxicity and off-targeting effects.

Serum clinical chemistry = assay type: in vivo, mice; settings: 72 hours after single 3 mg/kg dose or four once weekly 3 mg/kg doses
Procedure: The mice had been injected with either a single 3 mg/kg dose of total siRNA or four 3 mg/kg doses (1× per week for four weeks). Blood was drawn for analysis 72 hours post-final injection. There were no statistically significant changes in any of the clinical chemistry parameters for any of the treated groups compared to controls (as evaluated by a student t-test). Error bars represent standard deviation (n=3-5).
(§1) Post-sacrifice, cardiac sticks were immediately performed on animals that had been dosed with either 304O13 or C12-200 lipid nanoparticles. Blood was centrifuged in serum separator tubes at 5,000 rpm for 10 minutes, and serum was analyzed for various hematological parameters. Serum chemistry was evaluated on a Beckman Olympus AU400 Serum Chemistry Analyzer. Cytokines were analyzed using Bio-Plex Pro Mouse Cytokine 23-Plex Assay kits (Luminex Corporation, Austin, Tex.) on the Bio-Plex 200 system, according to manufacturer instructions.
A preliminary safety assessment was conducted on the lead LNP, 304O13, and it was compared to another previously-discovered LNP formulation, C12-200 (Love, K. T. et al. Lipid-like materials for low-dose, in vivo gene silencing. PNAS 107, 1864-1869 (2010)). […] Serum cytokine levels for both materials were assessed in mice four hours after a 3 mg/kg IV bolus injection (total siRNA). […]

[2] = Nanoparticle characterization; assay type: physicochemical
Procedure: Lipid nanoparticles were diluted to an siRNA concentration of ˜5 ug/ml in 0.1× PBS, pH 7.3. siRNA entrapment efficiency was determined using the Quant-iT™ RiboGreen® RNA assay (Invitrogen). Particle sizes were measured with a ZETAPa1s analyzer (Brookhaven Instruments, Holtsville, N.Y.). Sizes reported are the average effective diameter of each LNP. Zeta potential measurements were acquired on a Zetasizer Nano ZS (Malvern, Westborough, Mass.), and reported values were the average of 10-25 runs.
Entrapment of siRNA refers to the percentage of siRNA in solution that is incorporated into the nanoparticle during formulation, as measured by an RNA dye-binding assay (Nolan, T., Hands, R. E. & Bustin, S. A. Quantification of mRNA using real-time RT-PCR. Nat. Protoc 1, 1559-1582 (2006)). […] Zeta potential measurements were conducted under neutral pH conditions. pKa values, which were obtained using a toluene nitrosulphonic acid (TNS) assay, evaluated the pKa of the nanoparticle surface (Heyes, J., Palmer, L., Bremner, K. & MacLachlan, I. Cationic lipid saturation influences intracellular delivery of encapsulated nucleic acids. J Control Release 107, 276-287 (2005)).

CD45 = assay: In vivo CD45 silencing in leukocyte populations; settings: peritoneal cavity and spleen, three days post intravenous delivery
From the text: In these experiments, LNPs were formulated with siRNA specific against CD45, which is a tyrosine phosphatase protein found on the surface of all white blood cells. Three days following the intravenous delivery of LNPs in mice, immune cells were harvested from the peritoneal cavity and spleen. Cells were stained with fluorescent antibodies, and CD45 protein silencing was quantified in specific immune cell subsets via flow cytometry analysis.

[3] = Histology (H&E) of liver, spleen, kidneys and pancreas; assay type: in vivo, mice; settings: for dose at which liver necrosis was observed: single-dose studies (0-10 mg/kg)
Procedure: Organs were harvested from animals that had received various doses of either 304O13 or C12-200 lipid nanoparticles (C12-200 is a control non-degradable lipidoid shown below). Organs were fixed overnight in 4% paraformaldehyde and transferred to 70% ethanol prior to paraffin embedding, sectioning, and H & E staining.
Histological analysis was performed through H&E staining on sections from the liver, spleen, kidneys and pancreas. […] Pancreatic inflammation and islet cell enlargement were detected at C12-200 doses ≧2 mg/kg. […] Multi-dose studies were also conducted in which mice received four injections of 0.3, 1, 2, 3, or 5 mg/kg, once per week for four weeks. […] There was no sign of liver toxicity in any of the 304O13 groups up to 5 mg/kg.

[4] = Biodistribution of Cy5.5-labeled siRNA (IVIS, Odyssey, confocal); settings: liver harvested one hour post-injection
Lipidoid hydrolysis = assay type: physicochemical; settings: 6 N HCl reflux 24 h; KOH in EtOH/H2O reflux 41 h
Procedure: To a 25 ml round bottom flask was added 304O13 (0.250 g, 0.263 mmol, 1 equiv). For acidic hydrolysis, 10 ml of a solution of 6 N HCl was added to the flask to afford a cloudy heterogeneous solution. The reaction was heated to reflux to afford a clear, homogeneous solution and was stirred at reflux for 24 hours. For basic hydrolysis, 10 ml of a solution of KOH in EtOH/H2O (solution=5.61 g KOH in 47.5 ml EtOH w/2.5 ml distilled H2O) was added to the flask to afford a clear colorless solution. The reaction was heated to reflux and stirred for 41 h. […] Reactions were concentrated to dryness under reduced pressure and diluted with CDCl3. The basic reaction was filtered to remove excess KOH. Proton NMR analysis was performed in CDCl3. Proton nuclear magnetic resonance spectra were recorded with a Bruker Avance 400 spectrometer, are depicted in parts per million on the δ scale, and are referenced from the residual protium in the NMR solvent (CDCl3: δ 7.26 (CHCl3).
The acrylate-based lipidoids provided herein also contain hydrolysable ester moieties, functional groups which are commonly incorporated into delivery vehicles to promote physiological degradation (Staubli, A., Ron, E. & Langer, R. J. Am. Chem. Soc. 112, 4419-4424 (1990); van Dijkhuizen-Radersma, et al. Biomaterials 23, 4719-4729 (2002); Geng, Y. & Discher, D. E. J. Am. Chem. Soc. 127, 12780-12781 (2005)).

Serum cytokine profiling = assay type: in vivo, mice; settings: four hours after 3 mg/kg IV bolus (total siRNA)
Procedure: as §1
Cytokine analysis was done by injecting either 304O13 or C12-200 nanoparticles at an siRNA dose of 3 mg/kg. Four hours post-injection, blood was harvested via cardiac stick and serum was isolated. Cytokine levels were quantified using an ELISA assay.
A preliminary safety assessment was conducted on the lead LNP, 304O13, and it was compared to another previously-discovered LNP formulation, C12-200 (Love, K. T. et al. Lipid-like materials for low-dose, in vivo gene silencing. PNAS 107, 1864-1869 (2010)). […] Serum cytokine levels for both materials were assessed in mice four hours after a 3 mg/kg IV bolus injection (total siRNA). […] Clinical chemistry parameters were evaluated for both materials 72 hours after a single dose of 3 mg/kg and after four once weekly doses of 3 mg/kg each.

[5] = multi-dose, four injections once per week for four weeks

Compound: CCCCCCCCCCCCCOC(=O)CCN(CCC(=O)OCCCCCCCCCCCCC)CCN(CCC(=O)OCCCCCCCCCCCCC)CCN(CC)CC [Lipidoid 123O13]
Relative FVII Activity (Factor VII; 0.1 mg/kg siRNA): 0.86
Relative FVII Activity (Factor VII; 0.5 mg/kg siRNA): 0.50
Relative FVII Activity (Factor VII; 2 mg/kg siRNA): 0.00
Relative FVII Activity (Factor VII; 5 mg/kg siRNA): 0.00
Relative Luciferase Activity [1]: 0.22

Compound: CCCCCCCCCCCCOC(=O)CCN(CCC(=O)OCCCCCCCCCCCC)C[C@@H]1CCCN1CCC(=O)OCCCCCCCCCCCC [Lipidoid 154O12]
Relative FVII Activity (Factor VII; 5 mg/kg siRNA): 0.99
Relative Luciferase Activity [1]: 0.33

Compound: CCCCCCCCCCCCCCOC(=O)CCN(CCC(=O)OCCCCCCCCCCCCCC)[C@@H](CO)[C@H](C)O [Lipidoid 196O14]
Relative FVII Activity (Factor VII; 5 mg/kg siRNA): 0.82
Relative Luciferase Activity [1]: 0.38

Compound: CCCCCCCCCCCCCCOC(=O)CCN(CCC(=O)OCCCCCCCCCCCCCC)CCC1CCN(CCC(=O)OCCCCCCCCCCCCCC)CC1 [Lipidoid 205O14]
Relative FVII Activity (Factor VII; 5 mg/kg siRNA): 0.83
Relative Luciferase Activity [1]: 0.43

Compound: CCCCCCCCCCCCCOC(=O)CCN(C)CCCN(CC)CCCN(C)CCC(=O)OCCCCCCCCCCCCC [Lipidoid 218O13]
Relative FVII Activity (Factor VII; 5 mg/kg siRNA): 0.73
Relative Luciferase Activity [1]: 0.41

Compound: CCCCCCCCCCCCCOC(=O)CCN(CCC(=O)OCCCCCCCCCCCCC)CC1CCCN1C (stereo not shown) [Lipidoid 232O13]
Relative Luciferase Activity [1]: 0.39

Compound: CCCCCCCCCCCCCOC(=O)CCN(CCC(=O)OCCCCCCCCCCCCC)CC1CCCN(C)C1 (stereo not shown) [Lipidoid 235O13]
Relative FVII Activity (Factor VII; 5 mg/kg siRNA): 0.39
Relative Luciferase Activity [1]: 0.42

Compound: CCCCCCCCCCCCCOC(=O)CCN(C)CCN(CCN(C)CCC(=O)OCCCCCCCCCCCCC)CCN(C)CCC(=O)OCCCCCCCCCCCCC [Lipidoid 304O13]
albumin, ALT, AST, ALP, total bilirubin, GGT (Serum clinical chemistry): no toxicologically significant increases
siRNA Entrapment ([2]; lipid nanoparticle, RiboGreen RNA assay): 84.2%
Diameter ([2]; lipid nanoparticle, average effective diameter): 86.0 nm
Zeta Potential ([2]; lipid nanoparticle, neutral pH): 13.7 mV
pKa ([2]; nanoparticle surface, TNS assay): 6.8
CD45 silencing in immune cells (CD45): most robust CD45 silencing
Relative FVII Activity (Factor VII; 0.1 mg/kg siRNA): 0.54
Relative FVII Activity (Factor VII; 0.5 mg/kg siRNA): 0.23
Relative FVII Activity (Factor VII; 2 mg/kg siRNA): 0.02
Relative FVII Activity (Factor VII; 5 mg/kg siRNA): 0.01
time for Factor VII levels to return to baseline (Factor VII; optimized 304O13, single injection at 0.1 mg/kg): ≤ 18 days
Relative Luciferase Activity [1]: 0.08
doses with no sign of liver toxicity [3, 5]: up to 5 mg/kg
dose at which a small amount of apoptosis in splenic red pulp was observed ([3]; single-dose studies): 10 mg/kg
dose at which liver necrosis was observed [3]: 10 mg/kg
siRNA distribution within liver (confocal microscopy) [4]: siRNA accumulation throughout nearly all hepatocellular tissue
degradation under hydrolytic conditions (1H NMR, TLC) (Lipidoid hydrolysis): degraded to the anticipated alkyl-alcohol product

Compound: CCCCCCCCCCCCOC(=O)CCN(CCC(=O)OCCCCCCCCCCCC)CC1(C)CC(N(CCC(=O)OCCCCCCCCCCCC)CCC(=O)OCCCCCCCCCCCC)CC(C)(C)C1 (stereo not shown) [Lipidoid 315O12]
CD45 silencing in immune cells (CD45): modest CD45 silencing
Relative FVII Activity (Factor VII; 5 mg/kg siRNA): 0.99
Relative Luciferase Activity [1]: 0.30

Compound: CCCCCCCCCCCCCOC(=O)CCN(CCC(=O)OCCCCCCCCCCCCC)CCN(C)CCCN(C)CCN(CCC(=O)OCCCCCCCCCCCCC)CCC(=O)OCCCCCCCCCCCCC [Lipidoid 503O13]
FVII knockdown with control (non-targeting) siRNA (Factor VII; LNP encapsulating control siRNA): did not result in FVII knockdown
Relative Luciferase Activity [1]: 0.07

doses at which pancreatic inflammation and islet cell enlargement were detected ([3]; single-dose studies): ≥ 2 mg/kg
serum IL-6, IP-10, KC and MCP-1 levels vs PBS control and 304O13 groups (Serum cytokine profiling): elevated
Compound: CCCCCCCCCCC(O)CN(CCN1CCN(CCN(CC(O)CCCCCCCCCC)CC(O)CCCCCCCCCC)CC1)CCN(CC(O)CCCCCCCCCC)CC(O)CCCCCCCCCC (stereo not shown) [Lipidoid C12-200, reference compound]
albumin, ALT, AST, ALP, total bilirubin, GGT (Serum clinical chemistry): no toxicologically significant increases
doses at which liver necrosis and inflammation were observed [3, 5]: ≥ 1 mg/kg
dose at which liver necrosis was observed [3]: 7.5 mg/kg
